Experimental data as given in patent EP2236511A2, “LIGANDS OF ALPHA-ADRENOCEPTORS AND OF DOPAMINE, HISTAMINE, IMIDAZOLINE AND SEROTONIN RECEPTORS AND THE USE THEREOF” (priority 2007, dated 2009).

How the values were obtained:
human D4.2 receptor = biological target: T1, human D4.2 receptor (Homo sapiens, UniProt P21917, DEL265-296); experiment: Radioligand binding to dopamine receptor D4.2 ([3H] Spiperone, CHO-K1 membranes); conditions: read-out: Dopamine receptors, % inhibition D4.2
T1 construct: expressed in transfected cells; host or cells: CHO-K1
T1 sequence (P21917 with tags, fused parts or gaps DEL265-296): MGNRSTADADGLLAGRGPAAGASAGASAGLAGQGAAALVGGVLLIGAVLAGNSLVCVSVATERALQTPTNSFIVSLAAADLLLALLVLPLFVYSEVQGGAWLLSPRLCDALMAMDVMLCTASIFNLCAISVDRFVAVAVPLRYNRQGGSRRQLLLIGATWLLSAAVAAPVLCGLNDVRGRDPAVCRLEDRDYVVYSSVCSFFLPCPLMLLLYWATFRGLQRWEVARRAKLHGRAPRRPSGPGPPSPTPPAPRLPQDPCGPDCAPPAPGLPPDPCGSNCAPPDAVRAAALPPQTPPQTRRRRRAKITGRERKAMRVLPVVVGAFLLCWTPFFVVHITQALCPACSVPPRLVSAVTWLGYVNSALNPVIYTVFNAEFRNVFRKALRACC
Procedure: Screening of the disclosed compounds for potential ability to interact with dopamine receptor D4.2 is carried out by method of radioligand binding. […] From the cells transfected in this way membrane species are prepared by homogenization of these cells in glass homogenizer with the subsequent separation of plasmatic membranes from cell nuclei, mitochondrias and cell wreckages by differential centrifugation. […] After incubation samples are filtered in vacuo on glass-microfiber filters G/F (Millipor, USA), filters are washed three times with cold solution of medium and radioactivity is measured by scintillation counter MicroBeta 340 (Perkin Elmer, USA). Nonspecific binding which makes up 10% of the overall binding is determined by incubation of membrane species with radioligand in the presence of 10 µM of Haloperidol.
Spiperone is used as positive control. Tested compounds' binding to the receptor is determined by their ability to displace radioligand and expressed in percent of displacement (%I). Values of %I are calculated according to the following equation: %I = (TA-CA)/(TA-NA)*100, [formula] wherein: TA - is overall radioactivity in the presence of radioligand only, CA - is radioactivity in the presence of radioligand and tested compound and NA - is radioactivity in the presence of radioligand and Haloperidol (10 µM).

imidazoline receptor I2 = experiment: Radioligand binding to imidazoline receptor I2 ([3H] Idazoxan, rat brain membranes); conditions: 10 µM ligand
Procedure: For this purpose membrane species are prepared from rat (Wistar) brain homogenates by homogenization of them in glass homogenizer with the subsequent separation of plasmatic membranes from cell nuclei, mitochondrias and cell wreckages by differential centrifugation. […] After incubation the samples are filtered in vacuo on glass-microfiber filters G/F (Millipor, USA), filters are washed three times with cold solution of medium and radioactivity is measured by scintillation counter MicroBeta 340 (Perkin Elmer, USA). […] Idazoxan is used as positive control.
The tested compounds' binding to the receptor is determined by their ability to displace the radioligand and expressed in percent of displacement (%I). Values of %I are calculated according to the following equation: %I = (TA-CA)/(TA-NA)*100, [formula] wherein: TA - is the overall radioactivity in the presence of radioligand only, CA - is the radioactivity in the presence of radioligand and tested compound and NA - is a radioactivity in the presence of radioligand and Idazoxan (1 µM).

human D1 receptor = biological target: T2, human D1 receptor (Homo sapiens, UniProt P21728); experiment: Radioligand binding to dopamine receptor D1 ([3H] SCH-23390, CHO membranes); conditions: read-out: Dopamine receptors, % inhibition D1
T2 construct: expressed in transfected cells; host or cells: CHO
T2 sequence (P21728 whole entry): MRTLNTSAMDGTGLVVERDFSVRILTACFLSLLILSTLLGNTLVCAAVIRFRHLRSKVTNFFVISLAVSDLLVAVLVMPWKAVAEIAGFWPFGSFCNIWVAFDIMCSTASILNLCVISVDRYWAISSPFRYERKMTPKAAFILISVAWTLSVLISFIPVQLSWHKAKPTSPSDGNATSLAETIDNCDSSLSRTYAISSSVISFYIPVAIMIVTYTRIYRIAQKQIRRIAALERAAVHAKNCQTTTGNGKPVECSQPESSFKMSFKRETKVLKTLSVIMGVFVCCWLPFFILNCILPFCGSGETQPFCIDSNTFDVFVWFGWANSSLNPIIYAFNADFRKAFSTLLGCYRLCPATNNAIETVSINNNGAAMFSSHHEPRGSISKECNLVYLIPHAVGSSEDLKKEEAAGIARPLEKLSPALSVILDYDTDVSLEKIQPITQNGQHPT
Text: For this purpose sDNA of human D1 receptor is expressed in CHO cells, as it was described in [Dearry A, Gingrich JA, Falardeau P, Fremeau RT Jr, Bates MD and Caron MG. Molecular cloning and expression of the gene for a human D1 dopamine receptor. Nature. […] Nature.

human D3 receptor = biological target: T3, human D3 receptor (Homo sapiens, UniProt P35462); experiment: Radioligand binding to dopamine receptor D3 ([3H] Spiperone, CHO membranes)
T3 construct: expressed in transfected cells; host or cells: CHO
T3 sequence (P35462 whole entry): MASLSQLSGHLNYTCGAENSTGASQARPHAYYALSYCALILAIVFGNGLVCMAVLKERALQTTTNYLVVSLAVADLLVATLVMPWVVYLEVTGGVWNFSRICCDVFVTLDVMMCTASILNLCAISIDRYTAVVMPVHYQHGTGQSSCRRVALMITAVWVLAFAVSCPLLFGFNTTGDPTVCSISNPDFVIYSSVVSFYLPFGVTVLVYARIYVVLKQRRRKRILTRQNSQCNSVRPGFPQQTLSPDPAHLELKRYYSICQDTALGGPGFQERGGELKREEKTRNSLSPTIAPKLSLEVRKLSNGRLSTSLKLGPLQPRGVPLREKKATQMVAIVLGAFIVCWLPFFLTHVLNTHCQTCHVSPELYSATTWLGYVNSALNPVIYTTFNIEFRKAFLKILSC
Text: For this purpose sDNA of human D3 receptor is expressed in CHO cells, as it was described in [Sokoloff P, Giros B, Martres M-P, Bouthenet M-L and Schwartz J-C. Molecular cloning and characterization of novel dopamine receptor (D3) as target for neuroleptics. Nature. […] Molecular cloning and characterization of novel dopamine receptor (D3) as target for neuroleptics. Nature. […] Spiperone is used as positive control.

male mice of BALB/c line [1] = experiment: Passive Avoidance of mice in the Shuttle Chamber, memory disturbed by Scopolamine; assay type: in vivo; conditions: Scopolamine 0.3 mg/kg, injected 30 minutes before training; figures 1-3
Procedure: Example 14. […] A shuttle chamber (Ugo Basile, Italy) consisted of two sections was used. […] The sections were connected through a hole which could be overlapped by a vertical door. The floor was made of transverse metal bars on which DC current impulses could be fed. Experiments were carried out in aged male mice of BALB/c line weighing 20-24 grams.
Each group consisted of at least 8 animals. Animal was placed in light section, and latent period of the first entry into dark chamber was registered. Then the vertical door was closed and the animal was punished by 0.6 mA DC current for 3 seconds. After that it was taken back to its homecage. In 22-24 hours the same animal was placed again in light section of the shuttle chamber and latent period of its first entry into dark section, the total time of its stay in light section, and the number of entries into dark section, were registered. Each monitoring lasted for 5 minutes.
Testing was carried out during the day time in isolated laboratory using white noise at level of about 70 decibel above human hearing threshold.
Scopolamine causes the disturbance of training (memory loss) that results in […].

mice [2] = experiment: Mice Training in Morris Water Maze (Scopolamine); assay type: in vivo; conditions: unitary introduction of active ingredient; figures 10-13
Procedure: Example 17. Mice Training in Morris Water Maze. A round pool which was filled with water at 20-22°C was used. A round ceramic platform of 14cm height was placed in the pool. Animals's behavior was registered with automated computer videosystem in combination with software package of movement analysis Any-maze (Stoelting Co., US). Before testing mice suitable for training were selected. That was done by placing the platform 1cm above the water level and putting an animal on the platform for 20 seconds. Then the mouse was sunk into the water on the opposite side of the pool, allowed to find the platform and climbed it […] 60 seconds, where it was left for additional 20 seconds. After that the mouse was repeatedly immersed into water on the opposite side of the pool and allowed to look for platform. If it failed in finding the platform within 60 seconds the experimentator helped it to find the platform and climb it. If the mice could not find the platform itself in two consecutive attempts it was excluded from experiment. During the next two days the platform was placed 0.5 centimeter lower the water level. Every day the mice were given four attempts for finding the platform within 60 seconds. The time interval between the attempts was 20 seconds, during which the mice stayed on the platform. Every day before the first attempt mouse was placed on the platform for 20 seconds. The time needed for finding and climbing the platform was registered. The animals were sunk in water in 3 different places on the side of the pool opposite to platform. On each day of two-day testing 35-40 minutes before the beginning of training the mice were injected intraintestinally with physiological solution, Scopolamine or Scopolamine in combination with investigated compound. At least 8 animals were used in each group. On the third day the platform was removed and each animal was placed one time in the pool for a period of 60 seconds. The time each mouse spent in the area where the platform had been located during the previous days was registered. This time interval was regarded as a measure of effectiveness of training fulfilled during the previous two days. The testing was carried out during the day time in isolated laboratory using "white noise" at level of about 70 decibel above the human hearing threshold.

mice [3] = experiment: Tail suspension test; assay type: in vivo; conditions: dose of 0.05 mg/kg during 4 days; fig. 16
Procedure: Example 20. Mice behavior in tail suspension test. In the test a mouse was suspended by tail with a sticky tape on the holder over horizontal surface at a height of 40 cm, and during 3 minutes the total time of complete immobility was recorded. Automated computerized detection of motion with videosystem and Any-maze programm were used. After administration of ligand 1.1.2(1-2) (CD-008-0045) in dose of 0.05 mg/kg during 4 days the time of complete immobility of mouse was lowered almost by factor of 2.5 (fig.16), that testifies the cutting of period of depressively-like condition.

male mice of BALB/c line [4] = experiment: Mice Behavior in the Elevated Plus Maze; assay type: in vivo; conditions: doses of 0,05 and 0,1 mg/kg
Text: Example 16. […] The length of each arm of the maze was 30cm, width is 5cm, and height of the walls was 15cm. Two opposite arms were closed from both sides and end faces by transparent walls, the other two arms were lit and opened. A mouse was placed in the center of the maze and for the next five minutes the number of entries into opened and closed arms and the time spent in each type of arms was registered. […] The animals usually avoided opened arms (the preference index is between 0.2 and 0.3). Compounds with tranquilizing action increased this index up to 0.5-0.6 or even more and reduced the number of defecations without changing the overall motion activity of the mice (the total number of their entries to the arms).

recombinant human 5-HT1A = biological target: T4, recombinant human 5-HT1A (Homo sapiens, UniProt P08908); experiment: Radioligand binding to serotonin receptor 5-HT1A ([3H] 8-OH-DPAT, CHO membranes); conditions: read-out: 5-HT1A % inhibition
T4 construct: expressed in transfected cells; host or cells: CHO
T4 sequence (P08908 1-422): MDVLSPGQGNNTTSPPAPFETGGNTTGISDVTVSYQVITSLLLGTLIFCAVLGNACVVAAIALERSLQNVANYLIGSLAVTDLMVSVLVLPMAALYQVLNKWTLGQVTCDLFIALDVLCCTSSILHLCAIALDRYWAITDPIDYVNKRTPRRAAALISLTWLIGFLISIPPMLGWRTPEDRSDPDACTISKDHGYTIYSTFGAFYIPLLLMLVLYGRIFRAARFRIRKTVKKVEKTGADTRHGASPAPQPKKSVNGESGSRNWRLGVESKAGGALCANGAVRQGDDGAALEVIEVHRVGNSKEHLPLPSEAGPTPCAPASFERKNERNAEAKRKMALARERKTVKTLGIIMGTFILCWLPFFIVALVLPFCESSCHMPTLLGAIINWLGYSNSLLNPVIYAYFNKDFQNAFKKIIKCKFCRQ
Text: J Pharmacol Exp Ther. 306(1): 301-309, 2003]. […] Metergoline is used as positive control.

[5] = biological target: T5, serotonin receptor 5-HT1B (Rattus norvegicus, UniProt P28564); experiment: Radioligand binding to serotonin receptor 5-HT1B ([125I] cyanopindolol, rat brain cortex membranes); conditions: read-out: 5-HT1B % inhibition
T5 construct: membrane species are prepared from rat brains (Wistar) by homogenization of species of rat brain-cortices; from tissue; host or cells: rat (Wistar) brain cortex
T5 sequence (P28564 whole entry): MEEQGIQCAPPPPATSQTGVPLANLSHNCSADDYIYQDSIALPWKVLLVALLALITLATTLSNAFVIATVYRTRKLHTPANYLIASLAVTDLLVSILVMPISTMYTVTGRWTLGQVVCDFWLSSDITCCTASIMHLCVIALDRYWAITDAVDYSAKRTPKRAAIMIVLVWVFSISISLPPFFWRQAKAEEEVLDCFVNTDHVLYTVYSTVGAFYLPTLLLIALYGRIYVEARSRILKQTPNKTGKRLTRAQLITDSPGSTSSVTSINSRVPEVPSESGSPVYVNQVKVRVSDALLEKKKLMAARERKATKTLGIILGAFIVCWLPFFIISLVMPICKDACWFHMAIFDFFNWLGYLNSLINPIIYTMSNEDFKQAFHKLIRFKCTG
Text: Serotonin is used as positive control.

[6] = biological target: T6, recombinant human 5-HT2A receptor (Homo sapiens, UniProt P28223); experiment: Radioligand binding to serotonin receptor 5-HT2A ([3H] Ketanserin, CHO-K1 membranes); conditions: 10 µM ligand
T6 construct: expressed in transfected cells; host or cells: CHO-K1
T6 sequence (P28223 whole entry): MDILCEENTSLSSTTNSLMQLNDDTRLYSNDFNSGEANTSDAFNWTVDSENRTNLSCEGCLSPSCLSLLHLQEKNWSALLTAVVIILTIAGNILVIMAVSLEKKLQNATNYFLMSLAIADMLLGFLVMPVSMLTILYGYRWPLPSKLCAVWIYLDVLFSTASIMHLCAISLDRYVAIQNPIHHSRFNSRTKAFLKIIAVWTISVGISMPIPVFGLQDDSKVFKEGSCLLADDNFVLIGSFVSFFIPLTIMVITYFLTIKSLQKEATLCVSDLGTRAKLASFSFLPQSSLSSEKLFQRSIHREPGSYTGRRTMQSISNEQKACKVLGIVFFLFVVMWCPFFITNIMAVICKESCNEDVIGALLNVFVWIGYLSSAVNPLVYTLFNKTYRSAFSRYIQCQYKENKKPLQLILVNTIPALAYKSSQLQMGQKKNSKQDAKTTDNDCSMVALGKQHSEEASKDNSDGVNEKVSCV
Text: 9-C. […] J Neurochem. […] Ketanserin is used as positive control.

[7] = biological target: T7, recombinant human 5-HT2B receptor (Homo sapiens, UniProt P41595); experiment: Radioligand binding to serotonin receptor 5-HT2B ([3H] Lysergic acid diethylamide, CHO-K1 membranes); conditions: read-out: 5-HT2B % inhibition
T7 construct: expressed in transfected cells; host or cells: CHO-K1
T7 sequence (P41595 whole entry): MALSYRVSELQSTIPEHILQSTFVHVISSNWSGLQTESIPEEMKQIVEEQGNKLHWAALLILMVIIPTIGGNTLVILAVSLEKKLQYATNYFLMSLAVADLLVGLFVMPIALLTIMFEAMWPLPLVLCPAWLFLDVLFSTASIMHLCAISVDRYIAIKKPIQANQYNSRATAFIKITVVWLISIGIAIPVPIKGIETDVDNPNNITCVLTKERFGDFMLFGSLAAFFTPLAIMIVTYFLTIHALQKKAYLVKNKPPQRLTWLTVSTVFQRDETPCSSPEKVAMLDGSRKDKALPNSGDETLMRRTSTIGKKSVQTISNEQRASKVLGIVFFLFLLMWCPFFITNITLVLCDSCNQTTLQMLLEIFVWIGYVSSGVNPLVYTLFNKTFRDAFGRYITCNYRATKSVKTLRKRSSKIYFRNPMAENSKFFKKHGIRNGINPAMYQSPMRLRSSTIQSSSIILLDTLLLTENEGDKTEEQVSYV

[8] = biological target: T8, recombinant human 5-HT6 receptor (Homo sapiens, UniProt P50406); experiment: Radioligand binding to serotonin receptor 5-HT6 ([3H] Lysergic acid diethylamide, HeLa membranes); conditions: read-out: 5-HT6 % inhibition
T8 construct: expressed in transfected cells; host or cells: HeLa
T8 sequence (P50406 whole entry): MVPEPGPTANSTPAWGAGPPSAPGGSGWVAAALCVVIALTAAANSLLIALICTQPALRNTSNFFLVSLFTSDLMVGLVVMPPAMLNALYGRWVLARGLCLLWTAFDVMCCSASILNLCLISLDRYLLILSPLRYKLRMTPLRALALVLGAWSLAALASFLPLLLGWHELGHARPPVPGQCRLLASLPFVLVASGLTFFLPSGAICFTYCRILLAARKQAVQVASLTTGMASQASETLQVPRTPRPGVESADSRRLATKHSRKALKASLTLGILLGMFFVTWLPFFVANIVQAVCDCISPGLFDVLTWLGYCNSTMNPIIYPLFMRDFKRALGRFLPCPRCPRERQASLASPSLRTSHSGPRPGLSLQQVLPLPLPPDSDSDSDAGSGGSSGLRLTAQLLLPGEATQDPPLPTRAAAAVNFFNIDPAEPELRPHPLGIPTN
Text: Mol Pharmacol. 43:320-327, 1993]. […] Methiothepin is used as positive control.

SMILES: Cc1ccc2c(c1)[C@H]1CN(C)CCC[C@@H]1N2CCc1ccc(C)nc1 (relative stereo) [1.6.2(11)]
- inhibition at 10 µM (human D4.2 receptor): 6%
- % inhibition (imidazoline receptor I2): 83%

SMILES: Cc1ccc2c(c1)c1c(n2CCc2ccccc2)CCN(C)C1 [1.1.2(1-2) ·2HCl]
- inhibition at 10 µM (human D1 receptor): 89%
- IC50 (human D3 receptor): 0.256 µM
- Ki (human D3 receptor; Receptor D3): 0.868 µM
- nH (human D3 receptor; Receptor D3): 0.797
- inhibition at 10 µM (human D3 receptor; read-out: Dopamine receptors, % inhibition D3): 99%
- inhibition at 10 µM (human D4.2 receptor): 103%

SMILES: Cc1ccc2c(c1)c1c(n2CCc2ccccc2)CCN(C)C1 [1.1.2(1-2), 2,8-dimethyl-5-phenethyl-1,2,3,4-tetrahydro-1H-pyrido[4,3-b]indole]
- enhancement of memory disturbed by Scopolamine (male mice of BALB/c line [1]): improve memory
- memory disorders caused by Scopolamine (time spent in area of the platform) (mice [2]): decreasing memory disorders
- time of complete immobility, lowered by factor (mice [3]): ~2.5

SMILES: Cc1ccc2c(c1)c1c(n2CCc2ccc(C)nc2)CCN(C)C1.Cl.Cl [1.1.2(4-2)]
- enhancement of memory disturbed by Scopolamine (male mice of BALB/c line [1]): improve memory
- Anxiolytic (tranquilizing) action (male mice of BALB/c line [4]): exhibit analogous action
- memory disorders caused by Scopolamine (time spent in area of the platform) (mice [2]): decreasing memory disorders

SMILES: Cc1ccc2c(c1)c1c(n2CCc2ccncc2)CCN(C)C1 [1.1.2(5-2)·2HCl]
- inhibition at 10 µM (recombinant human 5-HT1A): 17%
- inhibition at 10 µM [5]: 14%
- inhibition at 10 µM [6]: 88%
- inhibition at 10 µM [7]: 80%
- inhibition at 10 µM [8]: 91%
- enhancement of memory disturbed by Scopolamine (male mice of BALB/c line [1]): improve memory

SMILES: Cc1ccc2c(c1)c1c(n2CCc2ccncc2)CCCN(C)C1 [1.2.2(5-3)·2HCl]
- memory disorders caused by Scopolamine (time spent in area of the platform) (mice [2]): decreasing memory disorders
